Assay results: patent publication US20260250325A1, “Antiviral Polypeptide Membrane Fusion Inhibitor, and Preparation Method and Application Thereof” (priority 2025, published 2026)
The star is where a group is joined. Succinyl(4-O-cholesteryl) = CC(C)CCC[C@@H](C)[C@H]1CC[C@H]2[C@@H]3CC=C4C[C@@H](OC(=O)CCC(=O)*)CC[C@]4(C)[C@H]3CC[C@]12C

Legend:
hMPV-N46 (127-172) = target: T1, hMPV-N46 (127-172) (Human metapneumovirus, UniProt Q6WB98); experiment: SPR affinity to hMPV-N46 coupled on CM5 chip; format: binding
T1 construct: hMPV-N46 (127-172)
T1 sequence (Q6WB98 127-172): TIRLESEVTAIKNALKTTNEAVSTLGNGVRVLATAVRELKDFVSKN

[1] = Cytotoxicity test in HEp-2 cells (CCK8 cell viability); format: cell-based; conditions: human; HEp-2 cells, CCK8, 1 day; read-out: CC50
Method in brief: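 Compound dilutions (final DMSO 0.5%) were applied for 1 day to HEp-2 cells plated at 30,000 per well the day before. CCK8 signal gave survival relative to cell and medium controls, and a four-parameter log(inhibitor)-response fit yielded CC50.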

RSV A2 virus strain = experiment: Cotton rat RSV A2 challenge protection, lung nucleic acid load by RT-qPCR; format: in vivo; conditions: cotton rats
Excerpt: Female cotton rats were from Shanghai Yishang Biotechnology Co., Ltd. The RSV A2 virus strain was from the ATCC, with a catalog number VR-1540. RT-qPCR primer+probe primer were supplied by Qingke Biotechnology Co., Ltd, with batch number TSP20241227-025-00187. The RT-qPCR standard was provided by Vazyme, with batch number 20241008.
Female cotton rats (6-8 weeks old) were grouped based on body weight (n=5). All animals were intranasally challenged with RSV on Day 0 at a challenge dosage of […] pfu (50 μL) per animal. Administration began 1 h after Day 0 challenge; the polypeptide sample, positive control, and solvent control were administered via tracheal nebulization once daily for 5 consecutive days. Lung tissue was collected from all animals 2 h after the final administration on Day 4. Left lung tissue (including partial trachea) was rapidly frozen in a virus protection solution with a 10-fold volume and stored below −70° C.; and the viral titer was detected with RT-qPCR.
First, sample homogenization and lung tissue RNA extraction were performed, and the supernatant was taken from the tissue sample that was homogenized using a tissue homogenizer (maintaining a low-temperature environment). The approximately 100 μL of the homogenate supernatant was taken, and total tissue RNA was extracted by using a VeZol reagent-chloroform-water phase-magnetic bead method, and dissolved in RNase-free water. The RT-qPCR reaction system was prepared as follows: a one-step RT-qPCR reaction system was prepared by using an RNA template, a probe, a primer pair, an RT-qPCR buffer, and the RNase-free water; each sample was tested in duplicated wells, with each well containing 20 μL of the one-step RT-qPCR reaction system; a quantitative standard curve well (RSV A2 N gene full-length plasmid), a positive quality control well, and a negative quality control well were arranged at the same time. Then, amplification programs were set according to reverse transcription, pre-denaturation, and cyclic amplification, and amplification data was collected by using a real-time fluorescence quantification PCR instrument, and a mean CT value for duplicated wells was calculated. The CT value from the test results for each sample was substituted into a quantitative standard curve to calculate a copy number. A calculation formula for RSV viral load (copy number/gram of lung tissue) was: sample viral load (copy number/gram of lung tissue)=copy number/relative tissue input (g).
One hour after RSV A2 challenge in cotton rats, compounds 13, 14, 17, 19, 20, 21, 26, 27, 28, and 40 were administered via tracheal nebulization once daily for 5 consecutive days; and 2 h after the final administration, lung tissue was collected from all groups for viral titer detection, and results were shown in Table 4.

Ac-WDEFDASISQVNEKINQSLEEIRKSDELLHNVNAGLGSGSGK(Succinyl(4-O-cholesteryl))-NH2 [Compound 27]
Kd (hMPV-N46 (127-172)): 2.92 µM
CC50 at 1 day [1]: 18.4 µM
Nucleic acid load RT-qPCR detection results Log10 mean (copy number/gram of lung tissue) (RSV A2 virus strain; tracheal nebulization 1 mg/kg QD for 5 days, lung collected 2 h after final administration on Day 4): 8.86 Log10 copy number/gram of lung
effect on viral titer in lung tissue (in words) (RSV A2 virus strain; tracheal nebulization once daily for 5 days): significantly reduce the viral titer in lung tissue
